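Interpolation was linear, between the two tested concentrations surrounding the appropriate level; five concentrations were tested over 48 hours in 96-well plates. Abbreviation: GI50, concentration required for 50% inhibition of growth. Definition used: TGI = concentration required for complete inhibition of growth.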
System: HOP-92 NSCLC
Assay: DTP human tumour cell line panel, 48 h

First: COc1cc(OC)c(C(=O)/C=C/c2cccc(C(F)(F)F)c2)c(OC)c1
Second: COc1c(C(=O)/C=C/c2ccccc2)c(O)cc2occc12
The GI50 of the first is 1.6-fold lower: 1.02 µM for the first, 1.64 µM for the second.

Going from `COc1cc2c(cc1OCCCCC(=O)Nc1cc3c4ccccc4ccc3c3ccccc13)N=C[C@@H]1CCCN1C2=O` to `CC12OC(C(=O)C13CC3)C1C(=O)c3ccc4c(ccc5ccccc54)c3C(=O)C12` (stereo not drawn), the GI50 rises from 1.45 µM to 27.5 µM (19-fold).

`CCCCC(CC)COC(=O)C[N+](C)(C)CCOC(c1ccccc1)c1ccccc1` (stereo not drawn) and `O=S(=O)(c1ccc(NC(=S)NC23CC4CC(CC(C4)C2)C3)cc1)N1CCCCC1` are within 1.5-fold of each other in GI50: 1.86 µM for the first, 1.63 µM for the second.

Compared with `COc1cc(OC)c(C(=O)/C=C/c2cccc(C(F)(F)F)c2)c(OC)c1`, `COc1c(C(=O)/C=C/c2ccccc2)c(O)cc2occc12` is 2-fold higher in TGI: 3.58 µM for the first, 7.09 µM for the second.

`COc1cc2c(cc1OCCCCC(=O)Nc1cc3c4ccccc4ccc3c3ccccc13)N=C[C@@H]1CCCN1C2=O` and `CC12OC(C(=O)C13CC3)C1C(=O)c3ccc4c(ccc5ccccc54)c3C(=O)C12` (stereo not drawn) cannot be ordered by TGI: greater than 20.9 µM for the first, greater than 100 µM for the second.

`CN1CCc2nc(N)nc(-c3nc(N)nc4c3CN(C)CC4)c2C1` and `COc1c2c(cc3c1OCO3)[C@]13C=C[C@H](OC)C[C@H]1N(C2)CC3O` (stereo partly drawn) cannot be ordered by TGI: greater than 100 µM for the first, greater than 100 µM for the second.

Going from `CCCCC(CC)COC(=O)C[N+](C)(C)CCOC(c1ccccc1)c1ccccc1` (stereo not drawn) to `Cc1cc(NC(=S)SCc2ccc(F)cc2)c([N+](=O)[O-])cc1C`, the TGI rises from 4.9 µM to 68 µM (14-fold).

`O=S(=O)(c1ccc(NC(=S)NC23CC4CC(CC(C4)C2)C3)cc1)N1CCCCC1` was tested, and the TGI was 5 µM.

System: NCI/ADR-RES ovarian
Assay: DTP human tumour cell line panel, 48 h

Compared with `COc1cc(OC)c(C(=O)/C=C/c2cccc(C(F)(F)F)c2)c(OC)c1`, `COc1c(C(=O)/C=C/c2ccccc2)c(O)cc2occc12` is 1.7-fold higher in GI50: 1.4 µM for the first, 2.42 µM for the second.

`COc1cc2c(cc1OCCCCC(=O)Nc1cc3c4ccccc4ccc3c3ccccc13)N=C[C@@H]1CCCN1C2=O` and `CC12OC(C(=O)C13CC3)C1C(=O)c3ccc4c(ccc5ccccc54)c3C(=O)C12` (stereo not drawn) are within 1.5-fold of each other in GI50: 32.2 µM for the first, 41.2 µM for the second.

First: COc1ccc(-c2nc3ccccn3c2/C=C/C(=O)c2cc(OC)c(OC)c(OC)c2)cc1OC
Second: COc1cc2c3c(n(CCCN)c(=O)c2cc1OC)-c1ccc(C#N)cc1C3=O
The GI50 of the first is 22-fold lower: 2.18 µM for the first, 48 µM for the second.

Compared with `CCCCC(CC)COC(=O)C[N+](C)(C)CCOC(c1ccccc1)c1ccccc1` (stereo not drawn), `N#Cc1cc(-c2cc3ccccc3o2)oc1N` is 6.3-fold lower in GI50: 23.5 µM for the first, 3.71 µM for the second.

Compound `O=S(=O)(c1ccc(NC(=S)NC23CC4CC(CC(C4)C2)C3)cc1)N1CCCCC1` has a GI50 of 3.46 µM.

`COc1cc(OC)c(C(=O)/C=C/c2cccc(C(F)(F)F)c2)c(OC)c1` and `COc1c(C(=O)/C=C/c2ccccc2)c(O)cc2occc12` are within 1.5-fold of each other in TGI: 5.95 µM for the first, 6.32 µM for the second.

`COc1cc2c(cc1OCCCCC(=O)Nc1cc3c4ccccc4ccc3c3ccccc13)N=C[C@@H]1CCCN1C2=O` and `CC12OC(C(=O)C13CC3)C1C(=O)c3ccc4c(ccc5ccccc54)c3C(=O)C12` (stereo not drawn) cannot be ordered by TGI: greater than 85.7 µM for the first, greater than 100 µM for the second.

`CN1CCc2nc(N)nc(-c3nc(N)nc4c3CN(C)CC4)c2C1` and `N#Cc1cc(-c2cc3ccccc3o2)oc1N` cannot be ordered by TGI: greater than 100 µM for the first, greater than 100 µM for the second.

`COc1c2c(cc3c1OCO3)[C@]13C=C[C@H](OC)C[C@H]1N(C2)CC3O` (stereo partly drawn) and `COc1cc2c3c(n(CCCN)c(=O)c2cc1OC)-c1ccc(C#N)cc1C3=O` cannot be ordered by TGI: greater than 100 µM for the first, greater than 100 µM for the second.

Compared with `COc1ccc(-c2cc(-c3cc(C)cc(Br)c3O)no2)cc1`, `COc1ccc(-c2nc3ccccn3c2/C=C/C(=O)c2cc(OC)c(OC)c(OC)c2)cc1OC` is lower in TGI: greater than 100 µM for the first, 8.04 µM for the second.

`CCCCC(CC)COC(=O)C[N+](C)(C)CCOC(c1ccccc1)c1ccccc1` (stereo not drawn) and `Cc1cc(NC(=S)SCc2ccc(F)cc2)c([N+](=O)[O-])cc1C` are within 1.5-fold of each other in TGI: 70.3 µM for the first, 62.2 µM for the second.

`O=S(=O)(c1ccc(NC(=S)NC23CC4CC(CC(C4)C2)C3)cc1)N1CCCCC1` showed a TGI greater than 100 µM.

System: OVCAR-4 ovarian
Assay: DTP human tumour cell line panel, 48 h

Compared with `COc1cc(OC)c(C(=O)/C=C/c2cccc(C(F)(F)F)c2)c(OC)c1`, `COc1c(C(=O)/C=C/c2ccccc2)c(O)cc2occc12` is 2.4-fold higher in GI50: 2.24 µM for the first, 5.4 µM for the second.

Going from `COc1cc2c(cc1OCCCCC(=O)Nc1cc3c4ccccc4ccc3c3ccccc13)N=C[C@@H]1CCCN1C2=O` to `COc1cc2c3c(n(CCCN)c(=O)c2cc1OC)-c1ccc(C#N)cc1C3=O`, the GI50 rises from 5.16 µM to 20 µM (3.9-fold).

`CCCCC(CC)COC(=O)C[N+](C)(C)CCOC(c1ccccc1)c1ccccc1` (stereo not drawn) and `N#Cc1cc(-c2cc3ccccc3o2)oc1N` are within 1.5-fold of each other in GI50: 2.4 µM for the first, 3.23 µM for the second.

`O=S(=O)(c1ccc(NC(=S)NC23CC4CC(CC(C4)C2)C3)cc1)N1CCCCC1` was tested, and the GI50 was 4.01 µM.

First: COc1cc(OC)c(C(=O)/C=C/c2cccc(C(F)(F)F)c2)c(OC)c1
Second: COc1c(C(=O)/C=C/c2ccccc2)c(O)cc2occc12
The TGI of the first is 3.1-fold lower: 8.57 µM for the first, 26.6 µM for the second.

Going from `COc1cc2c(cc1OCCCCC(=O)Nc1cc3c4ccccc4ccc3c3ccccc13)N=C[C@@H]1CCCN1C2=O` to `COc1cc2c3c(n(CCCN)c(=O)c2cc1OC)-c1ccc(C#N)cc1C3=O`, the TGI rises from 22.8 µM to 41.3 µM (1.8-fold).

Going from `CN1CCc2nc(N)nc(-c3nc(N)nc4c3CN(C)CC4)c2C1` to `N#Cc1cc(-c2cc3ccccc3o2)oc1N`, the TGI falls from greater than 100 µM to 40.6 µM.

Compared with `COc1c2c(cc3c1OCO3)[C@]13C=C[C@H](OC)C[C@H]1N(C2)CC3O` (stereo partly drawn), `COc1ccc(-c2cc(-c3cc(C)cc(Br)c3O)no2)cc1` is lower in TGI: greater than 100 µM for the first, 13.2 µM for the second.

Going from `CCCCC(CC)COC(=O)C[N+](C)(C)CCOC(c1ccccc1)c1ccccc1` (stereo not drawn) to `Cc1cc(NC(=S)SCc2ccc(F)cc2)c([N+](=O)[O-])cc1C`, the TGI rises from 6.99 µM to greater than 100 µM.

In the case of `O=S(=O)(c1ccc(NC(=S)NC23CC4CC(CC(C4)C2)C3)cc1)N1CCCCC1`, the TGI is reported as greater than 100 µM.

System: SNB-75 CNS
Assay: DTP human tumour cell line panel, 48 h

`COc1cc(OC)c(C(=O)/C=C/c2cccc(C(F)(F)F)c2)c(OC)c1` and `COc1c(C(=O)/C=C/c2ccccc2)c(O)cc2occc12` are within 1.5-fold of each other in GI50: 1.88 µM for the first, 2.42 µM for the second.

Compared with `COc1cc2c(cc1OCCCCC(=O)Nc1cc3c4ccccc4ccc3c3ccccc13)N=C[C@@H]1CCCN1C2=O`, `CC12OC(C(=O)C13CC3)C1C(=O)c3ccc4c(ccc5ccccc54)c3C(=O)C12` (stereo not drawn) is 2.7-fold higher in GI50: 19 µM for the first, 51.3 µM for the second.

First: COc1ccc(-c2nc3ccccn3c2/C=C/C(=O)c2cc(OC)c(OC)c(OC)c2)cc1OC
Second: COc1cc2c3c(n(CCCN)c(=O)c2cc1OC)-c1ccc(C#N)cc1C3=O
The GI50 of the first is 7-fold higher: 3.92 µM for the first, 0.562 µM for the second.

Compared with `CCCCC(CC)COC(=O)C[N+](C)(C)CCOC(c1ccccc1)c1ccccc1` (stereo not drawn), `N#Cc1cc(-c2cc3ccccc3o2)oc1N` is 1.7-fold higher in GI50: 2.13 µM for the first, 3.61 µM for the second.

Compared with `COc1cc(OC)c(C(=O)/C=C/c2cccc(C(F)(F)F)c2)c(OC)c1`, `COc1c(C(=O)/C=C/c2ccccc2)c(O)cc2occc12` is 1.9-fold higher in TGI: 7.9 µM for the first, 15.1 µM for the second.

`COc1cc2c(cc1OCCCCC(=O)Nc1cc3c4ccccc4ccc3c3ccccc13)N=C[C@@H]1CCCN1C2=O` and `CC12OC(C(=O)C13CC3)C1C(=O)c3ccc4c(ccc5ccccc54)c3C(=O)C12` (stereo not drawn) cannot be ordered by TGI: greater than 52.9 µM for the first, greater than 100 µM for the second.

Going from `COc1ccc(-c2cc(-c3cc(C)cc(Br)c3O)no2)cc1` to `COc1ccc(-c2nc3ccccn3c2/C=C/C(=O)c2cc(OC)c(OC)c(OC)c2)cc1OC`, the TGI rises from 8.73 µM to greater than 100 µM.

`COc1cc2c3c(n(CCCN)c(=O)c2cc1OC)-c1ccc(C#N)cc1C3=O` and `N#Cc1cc(-c2cc3ccccc3o2)oc1N` are within 1.5-fold of each other in TGI: 16.1 µM for the first, 15.5 µM for the second.

First: CCCCC(CC)COC(=O)C[N+](C)(C)CCOC(c1ccccc1)c1ccccc1 (stereo not drawn)
Second: Cc1cc(NC(=S)SCc2ccc(F)cc2)c([N+](=O)[O-])cc1C
The TGI of the first is lower: 5.27 µM for the first, greater than 100 µM for the second.

System: SW-620 colon
Assay: DTP human tumour cell line panel, 48 h

Going from `COc1cc(OC)c(C(=O)/C=C/c2cccc(C(F)(F)F)c2)c(OC)c1` to `COc1c(C(=O)/C=C/c2ccccc2)c(O)cc2occc12`, the GI50 rises from 1.58 µM to 3.52 µM (2.2-fold).

`COc1cc2c(cc1OCCCCC(=O)Nc1cc3c4ccccc4ccc3c3ccccc13)N=C[C@@H]1CCCN1C2=O` and `COc1ccc(-c2nc3ccccn3c2/C=C/C(=O)c2cc(OC)c(OC)c(OC)c2)cc1OC` are within 1.5-fold of each other in GI50: 3.68 µM for the first, 2.78 µM for the second.

First: COc1cc2c3c(n(CCCN)c(=O)c2cc1OC)-c1ccc(C#N)cc1C3=O
Second: N#Cc1cc(-c2cc3ccccc3o2)oc1N
The GI50 of the first is 2.8-fold higher: 11 µM for the first, 3.98 µM for the second.

Going from `CCCCC(CC)COC(=O)C[N+](C)(C)CCOC(c1ccccc1)c1ccccc1` (stereo not drawn) to `O=S(=O)(c1ccc(NC(=S)NC23CC4CC(CC(C4)C2)C3)cc1)N1CCCCC1`, the GI50 rises from 1.97 µM to 3.82 µM (1.9-fold).

Going from `COc1cc(OC)c(C(=O)/C=C/c2cccc(C(F)(F)F)c2)c(OC)c1` to `COc1c(C(=O)/C=C/c2ccccc2)c(O)cc2occc12`, the TGI rises from 5.01 µM to 11.7 µM (2.3-fold).

Compared with `COc1cc2c(cc1OCCCCC(=O)Nc1cc3c4ccccc4ccc3c3ccccc13)N=C[C@@H]1CCCN1C2=O`, `COc1ccc(-c2nc3ccccn3c2/C=C/C(=O)c2cc(OC)c(OC)c(OC)c2)cc1OC` is lower in TGI: greater than 100 µM for the first, 55.6 µM for the second.

Going from `CN1CCc2nc(N)nc(-c3nc(N)nc4c3CN(C)CC4)c2C1` to `N#Cc1cc(-c2cc3ccccc3o2)oc1N`, the TGI falls from greater than 100 µM to 14.8 µM.

First: COc1c2c(cc3c1OCO3)[C@]13C=C[C@H](OC)C[C@H]1N(C2)CC3O (stereo partly drawn)
Second: COc1cc2c3c(n(CCCN)c(=O)c2cc1OC)-c1ccc(C#N)cc1C3=O
The TGI of the first is higher: greater than 100 µM for the first, 30.6 µM for the second.

`COc1ccc(-c2cc(-c3cc(C)cc(Br)c3O)no2)cc1` and `Cc1cc(NC(=S)SCc2ccc(F)cc2)c([N+](=O)[O-])cc1C` cannot be ordered by TGI: greater than 100 µM for the first, greater than 100 µM for the second.

Going from `CCCCC(CC)COC(=O)C[N+](C)(C)CCOC(c1ccccc1)c1ccccc1` (stereo not drawn) to `O=S(=O)(c1ccc(NC(=S)NC23CC4CC(CC(C4)C2)C3)cc1)N1CCCCC1`, the TGI rises from 4.3 µM to greater than 100 µM.

From PubChem BioAssay (NCI)
